Results published in US20230098202A1 (priority 2020, published 2023).
Where two headings read alike, the source gives them in different places.

How the values were obtained:
Phytophthora infestans [1] = details: n = 10
Puccinia sorghi [2] = type: cell-based; details: 25 ppm
Rhizoctonia solani = type: cell-based
Pythium aphanidermatum = type: cell-based
Phytophthora infestans [3] = type: cell-based; details: Phytophthora infestans on tomato leaf discs; activity grade x repeats/12 x100
Pseudomonas syringae = type: cell-based
Puccinia sorghi [4] = test: In planta validation: Puccinia sorghi infection of corn seedlings; type: in vivo, Puccinia sorghi on corn; details: controlled growth conditions, growth rooms, spraying
Experimental: • 1) Use: 120×80×80 mm pots, standard garden soil with fertilizer and corn seeds of a rust sensitive variety. • 2) Put pots in a tray and fill the pots with the soil to the top. • 3) Make a small grove for the seeds. • 4) Plant about 10 seeds of corn in each pot. • 5) Cover the seeds with additional soil. • 6) Add water into the tray—about 100 ml for each pot (fill the tray 3 times). • 7) Grow the corn for 8 days in growth room at 22° C. (until the second leaf is emerged). B. Preparation of Spore Suspension [from Corn Leaves] for Inoculation • 1) Insert 20 infected corn leaves with spores into a sterile 50-ml tube. • 2) Add 50 ml of cold 0.05% Tween® 20 solution. • 3) Insert the tube into a sealed, ice cold plastic box. • 4) Shake the box using a shaker for 15 min at 3000 RPM. • 5) Transfer the suspension (without the leaves) into a clean sterile 50-ml tube. • 6) Filter the spore suspension through 16 layers of gauze into another sterile 50-ml tube. • 7) Keep the tube with the spore suspension on ice. • 8) Wash and concentrate the spores on a 5-micron membrane filter. Wash 4 times with ice-cold sterile water and collect the spores in 0.05% Tween® 20 solution. • 9) For inoculation, dilute the spore suspension to get spore concentration of 8000 spores/ml using cold 0.05% Tween® 20 solution. […]

Puccinia triticina = test: In planta validation in wheat infected with leaf rust, growth chamber; type: in vivo, Puccinia triticina on wheat; details: sprayed a day before inoculation

Row | SMILES | Mean leaf surface area (0-3) covered by Phytophthora (Phytophthora infestans [1]; Exp. 487, 200 ppm in 0.1% base (pH = 6) + Silwet 0.005%, not treated 2.6) | Mean leaf surface area (0-3) covered by Phytophthora (Phytophthora infestans [1]; Exp. 487, 200 ppm in DMSO 6% + Silwet 0.005%, 0=clear, 3=high coverage, not treated 2.6) | Mean leaf surface area (0-3) covered by Phytophthora (Phytophthora infestans [1]; Exp. 492, 200 ppm in 0.1% base (pH = 6) + Silwet 0.005%, not treated 3) | Mean leaf surface area (0-3) covered by Phytophthora (Phytophthora infestans [1]; Exp. 492, 200 ppm in DMSO 6% + Silwet 0.005%, not treated 3) | Mean leaf surface area (0-3) covered by Phytophthora (Phytophthora infestans [1]; Exp. 500, 200 ppm in 0.1% base (pH = 6) without Silwet, not treated 3) | Relative Activity value (%) (Puccinia sorghi [2]) | Relative Activity value (%) (Rhizoctonia solani) | Relative Activity value (%) (Pythium aphanidermatum) | Relative Activity value (%) (Phytophthora infestans [3]) | Relative Activity value (%) (Pseudomonas syringae) | efficacy in preventing and controlling Puccinia sorghi in corn plants (in words) (Puccinia sorghi [4]) | average efficacy in preventing and controlling Puccinia triticina (Puccinia triticina; 200 ppm) [%] | average efficacy in preventing and controlling Puccinia triticina (Puccinia triticina; 400 ppm) [%]
1 | CN[C@H]1CCC(c2ccc(Cl)c(Cl)c2)c2ccccc21.Cl (stereo in doubt) [Compound 3, (1S,4R)-4-(3,4-dichlorophenyl)-N-methyl-1,2,3,4-tetrahydronaphthalen-1-aminium chloride] | 0.7 | 0.1 | 0.3 | 0.4 | 0.8 | – | – | – | – | – | – | – | –
2 | C[C@H]1[C@H](c2ccc(O)c(O)c2)c2cc(O)c(O)cc2C[C@H]1C [Compound 1, (5R,6R,7R)-5-(3,4-dihydroxyphenyl)-6,7-dimethyl-5,6,7,8-tetrahydronaphthalene-2,3-diol] | – | – | – | – | – | 50 | 50 | 100 | 25 | 14 | very good efficacy | 95.17 | 97.06
3 | COc1cc2c(cc1O)[C@@H](c1ccc(O)c(O)c1)[C@H](C)[C@H](C)C2 [Compound 2, 4-((1R,2R,3R)-7-hydroxy-6-methoxy-2,3-dimethyl-1,2,3,4-tetrahydronaphthalen-1-yl)benzene-1,2-diol] | – | – | – | – | – | 50 | 14 | 20 | – | 14 | – | – | –
